Square brackets hold non-standard residues; d marks the D form. Peptide text beside a SMILES is read from it. Dolaproine = CO[C@@H]([C@@H]1CCCN1)[C@@H](C)C(=O)O; Dil = CC[C@H](C)[C@H](NC)[C@@H](CC(=O)O)OC; NMeV = CN[C@H](C(=O)O)C(C)C
Experiments:
Assay in all cases: Anti-proliferation assay of ADC (SRB)
Type in all cases: cell-based, human
Settings in all cases: 72 hours, drug
[1] = system: MCF-7 (HER2-negative or -normal) breast cancer cell line
Experimental: (§1) Anti-cell proliferation activities of antibodies, a drug, and ADC(s) illustrated in the following Table 2 on cancer cell lines were measured.
(§2) As the cancer cell lines, commercialized human breast cancer cell lines MCF-7 (HER2-negative or -normal) and SK-Br3 (HER2 positive), and a commercialized ovarian cancer cell lines SK-OV3 (HER2 positive) were used. As the drug, MMAF was used.
(§3) After each of the cancer cell lines was seeded in a 96-well plate at 10,000 cells/each well and cultured for 24 hours, the antibody and ADC were treated at a concentration of 0.01563-2 μg/ml (2 times serial dilution), and the drug was treated at a concentration of 4-500 nM (2 times serial dilution). After 72 hours, the numbers of living cells were quantified using a Sulforhodamine B (SRB) dye.

[2] = system: SK-OV3 (HER2 positive) ovarian cancer cell line
Experimental: as §1, §2, §3

[3] = system: SK-Br3 (HER2 positive) breast cancer cell line
Experimental: as §1, §2
After 72 hours, the numbers of living cells were quantified using a Sulforhodamine B (SRB) dye.

CC[C@H](C)[C@@H]([C@@H](CC(=O)N1CCC[C@H]1[C@H](OC)[C@@H](C)C(=O)N[C@@H](Cc1ccccc1)C(=O)O)OC)N(C)C(=O)[C@@H](NC(=O)[C@@H](NC)C(C)C)C(C)C [MMAF, monomethylauristatin F] (H-[NMeV]V[Dil][Dolaproine]F-OH)
IC50 [1]: 142 nM | IC50 [2]: 227 nM | IC50 [3]: 136 nM
